Measured values: patent US12466821B2 (Novartis AG, priority 2018, dated 2025)

Tests used:
[1] = molecular target: human HSV DNA polymerase UL30 (Human herpesvirus 1 (strain 17) (HHV-1) (Human herpes simplex virus 1), UniProt P04293); assay: HSV polymerase biochemical assay (molecular beacon-based)
Procedure: (§1) Both human CMV DNA polymerase UL54 and human HSV DNA polymerase UL30 were produced as N-terminal MBP fusion of the full length, wild type recombinant proteins in order to enhance soluble expression in insect cell expression system. The proteins were expressed in sf9 insect cells via baculovirus transduction and cells were harvested after 48 hours. The soluble proteins were purified using the standard Ni-IMAC purification strategy via the N-terminal hexa-Histidine tag, followed by heparin affinity chromatography. Both of the final MBP fusion proteins were more than 90% pure and the yield of UL54 was up to 1.8 mg per liter culture while UL30 was up to 15 mg per liter culture. All purification steps were performed on ice, with buffers chilled on ice and FPLC fraction collectors set at 6° C. […] UL30 protein was stored in buffer containing 20 mM HEPES, pH7.0, 420 mM NaCl, 20% glycerol, 6 mM Imidazole, and 0.8 mM DTT at−80° C.
(§2) DNA polymerase activity was measured using a molecular beacon-based assay, as described in Ma et. al.
(§3) 100 pM CMV polymerase or 625 pM HSV polymerase was added to a buffer containing 20 mM Tris, pH=7.5, 100 mM NaCl, 10 mM MgCl2, 0.01% Tween-20, 0.5 mM EDTA, 10% Sucrose and 1 mM DTT. The inhibitor was pre-incubated with the polymerase for 30 minutes at room temperature. Reactions were initiated by the addition of a mixture containing 1.25 uM dATP, 1.25 uM dCTP, 1.25 uM dTTP, 1.25 uM dGTP, 200 nM Primer B (5′-GAC GGG AAG-3′5′-GAC GGG AAG-3′) and 100 nM molecular beacon (5′-5,6-FAM-CCTCTCCGTGTCTTGTACTTCCCGTCAGAGAGG-BHQ1-3′). For human CMV polymerase the reactions were incubated for 60 minutes at room temperature. For HSV polymerase the reactions were incubated for 20 minutes at room temperature. The reactions were then read on a Perkin-Elmer EnVision 2101 reader (fluorescence) using an excitation of 480 nm and emission of 535 nm. 1050s were determined using an internal Novartis software (Helios).
as §3, with “nm.” for “nm. 1050s were determined using an internal Novartis software (Helios).”

[2] = molecular target: human CMV DNA polymerase UL54 (Human cytomegalovirus (strain AD169) (HHV-5) (Human herpesvirus 5), UniProt P08546); assay: CMV polymerase biochemical assay (molecular beacon-based)
Procedure: as §1, §2, §3
as §3, with “nm.” for “nm. 1050s were determined using an internal Novartis software (Helios).”

[3] = test system: Luciferase-encoding HCMV, AD169 strain; assay: CMV Luciferase assay (cellular herpesvirus replication); assay type: cell-based; settings: Human betaherpesvirus 5, AD169, read-out: CMV-Luc Cellular EC50
Outline: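 Reporter HCMV AD169 with luciferase driven by late pp28 promoter, so signal requires viral DNA replication; NN-NHDF fibroblasts in 2% FBS medium, compound (0.0159–50 or 0.00318–10 μM, 0.5% DMSO) added 1 h before infection at MOI 1. Luminescence read 72 hpi; EC50 from 4-parameter fit of control-normalized %.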

SMILES: Cc1cc(C(=O)NCc2ccc(Cl)cc2)c(=O)n2c1C(=O)N(CCS(C)(=O)=O)CC2 [Example 153]
- IC50 [1]: 388 nM
- IC50 [2]: 118 nM
- EC50 [3]: 626 nM

SMILES: N#Cc1ccc(CNC(=O)c2ccc3n(c2=O)CCN(CC2(S(=O)(=O)C4(F)CC4)CC2)C3=O)cc1 [Example 77-1, N-(4-cyanobenzyl)-2-((1-((1-fluorocyclopropyl)sulfonyl)cyclopropyl)methyl)-1,6-dioxo-2,3,4,6-tetrahydro-1H-pyrido[1,2-a]pyrazine-7-carboxamide]
- IC50 [1]: 95.4 nM
- IC50 [2]: 3.2 nM
- EC50 [3]: 126 nM

SMILES: N#Cc1ccc(CNC(=O)c2ccc3n(c2=O)CCN(CC2(S(=O)(=O)C4(O)CC4)CC2)C3=O)cc1 [Example 196, N-(4-cyanobenzyl)-2-((1-((1-hydroxycyclopropyl)sulfonyl)cyclopropyl)methyl)-1,6-dioxo-1,3,4,6-tetrahydro-2H-pyrido[1,2-a]pyrazine-7-carboxamide]
- IC50 [1]: 205 nM
- IC50 [2]: 7.7 nM
- EC50 [3]: 509 nM

SMILES: N#Cc1ccc(CNC(=O)c2ccc3n(c2=O)CCN(CC2(S(=O)(=O)C4(CO)CC4)CC2)C3=O)cc1 [Example 11]
- IC50 [1]: 24.3 nM
- IC50 [2]: 0.4 nM
- EC50 [3]: 26.7 nM

SMILES: O=C(NCc1ccc(Cl)cc1)c1ccc2n(c1=O)CCN(CCN1CCCCC1=O)C2=O [Example 57]
- IC50 [1]: 6130 nM
- IC50 [2]: 374 nM
- EC50 [3]: 7260 nM

SMILES: C[C@@H](NC(=O)c1ccc2n(c1=O)CCN(CC1(S(C)(=O)=O)CC1)C2=O)c1ccc(Cl)cc1 [Example 45]
- IC50 [1]: 130000 nM
- IC50 [2]: 458 nM
- EC50 [3]: 10000 nM

SMILES: CC1(CS(=O)(=O)C2(CN3CCn4c(ccc(C(=O)NCc5ccc(C#N)c(F)c5)c4=O)C3=O)CC2)COC1 [Example 103-3]
- IC50 [1]: 170 nM
- IC50 [2]: 10.8 nM
- EC50 [3]: 791 nM

SMILES: CN(C(C)(C)C)S(=O)(=O)C1(CN2CCn3c(ccc(C(=O)NCc4ccc(Cl)cc4)c3=O)C2=O)CC1 [Example 74-1]
- IC50 [1]: 22.7 nM
- IC50 [2]: 0.4 nM
- EC50 [3]: 13.7 nM

SMILES: N#Cc1ccc(CNC(=O)c2ccc3n(c2=O)CCN(CC2(S(=O)(=O)C4CC(F)(F)C4)CC2)C3=O)cc1 [Example 83, N-(4-cyanobenzyl)-2-((1-((3,3-difluorocyclobutyl)sulfonyl)cyclopropyl)methyl)-1,6-dioxo-2,3,4,6-tetrahydro-1H-pyrido[1,2-a]pyrazine-7-carboxamide]
- IC50 [1]: 101 nM
- IC50 [2]: 4.4 nM
- EC50 [3]: 146 nM

SMILES: C[S@+]([O-])C1(CN2CCn3c(ccc(C(=O)NCc4ccc(C#N)cc4)c3=O)C2=O)CC1 [Example 68-3]
- IC50 [1]: 9190 nM
- IC50 [2]: 198 nM
- EC50 [3]: 7560 nM

SMILES: N#Cc1ccc(CNC(=O)c2ccc3n(c2=O)CCN(CC2(S(=O)(=O)[C@H]4CC4(F)F)CC2)C3=O)cc1F (single isomer, unassigned) [Example 101-1]
- IC50 [1]: 48.7 nM
- IC50 [2]: 1 nM
- EC50 [3]: 55.5 nM

SMILES: N#Cc1ccc(CNC(=O)c2ccc3n(c2=O)CCN(CC2(S(=O)(=O)[C@@H]4CC4(F)F)CC2)C3=O)cc1F (single isomer, unassigned) [Example 101-2]
- IC50 [1]: 32.9 nM
- IC50 [2]: 0.6 nM
- EC50 [3]: 29.6 nM

SMILES: CCS(=O)(=O)C1(CN2CCn3c(ccc(C(=O)NCc4ccc(Cl)cc4)c3=O)C2=O)CC1 [Example 36]
- IC50 [1]: 42.3 nM
- IC50 [2]: 0.7 nM
- EC50 [3]: 24.9 nM

SMILES: CC(C)(C)NS(=O)(=O)C1(CN2CCn3c(ccc(C(=O)NCc4ccc(Cl)cc4)c3=O)C2=O)CC1 [Example 72-1, 2-((1-(N-(tert-butyl)sulfamoyl)cyclopropyl)methyl)-N-(4-chlorobenzyl)-1,6-dioxo-2,3,4,6-tetrahydro-1H-pyrido[1,2-a]pyrazine-7-carboxamide]
- IC50 [1]: 23.5 nM
- IC50 [2]: 0.6 nM
- EC50 [3]: 29.2 nM

SMILES: CS(=O)(=O)C1(CN2CCn3c(ccc(C(=O)NCc4ccc(F)cc4)c3=O)C2=O)CC1 [Example 47]
- IC50 [1]: 393 nM
- IC50 [2]: 20 nM
- EC50 [3]: 783 nM

SMILES: CC(=O)NS(=O)(=O)C1(CN2CCn3c(ccc(C(=O)NCc4ccc(C#N)cc4)c3=O)C2=O)CC1 [Example 73-3]
- IC50 [1]: 45.9 nM
- IC50 [2]: 1.6 nM
- EC50 [3]: 9310 nM

SMILES: O=C(NCc1ccc(F)c(F)c1)c1ccc2n(c1=O)CCN(CC1(S(=O)(=O)C3CC3)CC1)C2=O [Example 3-3]
- IC50 [1]: 149 nM
- IC50 [2]: 7.9 nM
- EC50 [3]: 64 nM

SMILES: CC(C)S(=O)(=O)C1(CN2CCn3c(ccc(C(=O)NCc4ccc(C#N)c(F)c4)c3=O)C2=O)CC1 [Example 33]
- IC50 [1]: 48.2 nM
- IC50 [2]: 1 nM
- EC50 [3]: 33.1 nM

SMILES: CC(C)(C(N)=O)S(=O)(=O)C1(CN2CCn3c(ccc(C(=O)NCc4ccc(Cl)cc4)c3=O)C2=O)CC1 [Example 177, 2-((1-((1-amino-2-methyl-1-oxopropan-2-yl)sulfonyl)cyclopropyl)methyl)-N-(4-chlorobenzyl)-1,6-dioxo-1,3,4,6-tetrahydro-2H-pyrido[1,2-a]pyrazine-7-carboxamide]
- IC50 [1]: 18.1 nM
- IC50 [2]: 1.5 nM
- EC50 [3]: 12.4 nM

SMILES: CCc1cc(C(=O)NCc2ccc(Cl)cc2)c(=O)n2c1C(=O)N(CCN(C)S(C)(=O)=O)CC2 [Example 134, N-(4-chlorobenzyl)-9-ethyl-2-(2-(N-methylmethylsulfonamido)ethyl)-1,6-dioxo-1,3,4,6-tetrahydro-2H-pyrido[1,2-a]pyrazine-7-carboxamide]
- IC50 [1]: 2120 nM
- IC50 [2]: 268 nM
- EC50 [3]: 2870 nM

SMILES: Cc1cc(C(=O)NCc2ccc(C#N)cc2)c(=O)n2c1C(=O)N(CC1(S(=O)(=O)C3CC3)CC1)CC2 [Example 93-1, N-(4-cyanobenzyl)-2-((1-(cyclopropylsulfonyl)cyclopropyl)methyl)-9-methyl-1,6-dioxo-2,3,4,6-tetrahydro-1H-pyrido[1,2-a]pyrazine-7-carboxamide]
- IC50 [1]: 46.7 nM
- IC50 [2]: 1.1 nM
- EC50 [3]: 38.6 nM

SMILES: CC1CN(CCN(C)S(C)(=O)=O)C(=O)c2ccc(C(=O)NCc3ccc(Cl)cc3)c(=O)n21 (stereo not drawn) [Example 91, N-(4-chlorobenzyl)-4-methyl-2-(2-(N-methylmethylsulfonamido)ethyl)-1,6-dioxo-2,3,4,6-tetrahydro-1H-pyrido[1,2-a]pyrazine-7-carboxamide]
- IC50 [1]: 2250 nM
- IC50 [2]: 186 nM
- EC50 [3]: 2480 nM

SMILES: COC1(CN2CCn3c(ccc(C(=O)NCc4ccc(Cl)cc4)c3=O)C2=O)CC1 [Example 171, N-(4-chlorobenzyl)-2-((1-methoxycyclopropyl)methyl)-1,6-dioxo-1,3,4,6-tetrahydro-2H-pyrido[1,2-a]pyrazine-7-carboxamide]
- IC50 [1]: 2800 nM
- IC50 [2]: 72.9 nM
- EC50 [3]: 637 nM

SMILES: O=C(NCc1ccc(Cl)cc1)c1ccc2n(c1=O)CCN(CCO)C2=O [Example 116, N-(4-chlorobenzyl)-2-(2-hydroxyethyl)-1,6-dioxo-2,3,4,6-tetrahydro-1H-pyrido[1,2-a]pyrazine-7-carboxamide]
- IC50 [1]: 14100 nM
- IC50 [2]: 2140 nM
- EC50 [3]: 24700 nM

SMILES: COC1(S(=O)(=O)C2(CN3CCn4c(ccc(C(=O)NCc5ccc(C#N)c(F)c5)c4=O)C3=O)CC2)CC1 [Example 190]
- IC50 [1]: 66.5 nM
- IC50 [2]: 1.4 nM
- EC50 [3]: 47.8 nM

SMILES: CN1CCC(S(=O)(=O)C2(CN3CCn4c(ccc(C(=O)NCc5ccc(C#N)c(F)c5)c4=O)C3=O)CC2)C1 (stereo not drawn) [Example 81-2]
- IC50 [1]: 204 nM
- IC50 [2]: 11.3 nM
- EC50 [3]: 486 nM
